Results from US20030236458A1, “Spectroscopic systems and methods for detecting tissue properties” (BIOPHYSICA LLC, priority 1999, published 2003).
Blank lines part the entries; values can stand above or below the compound they belong to.

What was measured:
hippocampal slice = test: Spontaneous interictal-like bursts in hippocampal slices with modified bathing medium; type: cell-based, rat
hippocampal tissue slice = test: Stimulation-evoked after discharge and intrinsic optical signals in hippocampal slices (Example 10); type: cell-based, rat
Experimental: Sprague-Dawley rats (male and female; 25 to 35 days old) were prepared as described in Aghajanian, A. K. and Rasmussen, K., Synapse 31:331, 1989; and Buckmaster, P. S., Strowbridge, B. W., Schwartzdroin, P. A., J. Neurophysiol. 70:1281, 1993. In most hippocampal slice experiments, simultaneous extracellular field electrode recordings were obtained from CA1 and CA3 areas. For stimulation-evoked after discharge (13 slices, 8 animals), the concentration of Mg^2+ in the bathing medium was reduced to 0.9 mM. A bipolar tungsten stimulating electrode was placed on the Schaffer collaterals to evoke synaptically driven field responses in CA1; stimuli consisted to 100 to 300-μs-duration pulses at an intensity of four times population-spike threshold. After discharges were evoked by a 2-[…] of such stimuli delivered at 60 Hz. […] In all treatments, perfusion with furosemide-containing medium was begun after a consistent level of bursting had been established.
For imaging of intrinsic optical signals, the tissue was illuminated with a beam of white light (tungsten filament light and lens system; Dedotec USA, Lodi, N.J.) directed through the microscope condenser. The light was controlled and regulated (power supply: Lambda Electronics, Melville, N.Y.) to minimize fluctuations and filtered (695 nm long-pass) so that the slice was transilluminated with long wavelengths (red). Image frames were acquired with a charge-coupled device camera (Dage-MTI) at 30 Hz and were digitized at 8 bits with a spatial resolution of 512 by 480 pixels by means of an Imaging Technology Series 151 imaging system; gains and offsets of the camera-control site and the analog-to-digital board were adjusted to optimize the sensitivity of the system. Imaging hardware was controlled by a 486-PC-compatible computer running software written by D. Hochman and developed with commercially available software tools (Microsoft's C/C++ Compiler and Imaging Technology's ITEX library). To increase signal-to-noise ratio, an averaged image was composed from 16 individual image-frames, integrated over 0.5 s and averaged together. An experimental series typically involved the continuous acquisition of a series of averaged images over a several minute time period; at least 10 of these averaged images were acquired as control images before stimulation. Pseudocolored images were calculated by subtracting the first control image from subsequently acquired images and assigned a color lookup table to the pixel values. For these images, usually a linear low-pass filter was used to remove high-frequency noise and a linear-histogram stretch was used to map the pixel values over the dynamic range of the system. All operations on these images were linear so that quantitative information was preserved.

[1] = test system: low grade human CNS tumor; test: Optical imaging of dye perfusion in a low grade human CNS tumor (Example 3); type: in vivo
Experimental: This example illustrates the use of a contrast enhancing agent, indocyanine green, to identify and spatially localize a low grade human CNS tumor. An MRI scan was conducted before the operation. Additionally, the patient was investigated for tumor tissue using the apparatus described according to the invention and specifically described above.
The area of interest was evenly illuminated by a fiber optic light source with the radiation passing through a beam splitter, controlled by a D.C. regulated power supply (Lambda, Inc.) and passed through a 695 nm long pass filter. Images were acquired with a CCD camera (COHU 6500) fitted to the operating microscope with a specially modified cineadaptor. The cortex was stabilized with a glass footplate. Images were acquired at 30 Hz and digitized at 8 bits (512×480 pixels, using an Imaging Technology, Inc. Series 151 system, Woburn, Mass.). Geometrical transformations were applied to images to compensate for small amounts of patient motion (Wohlberg, Digital Imaging Warping, IEEE Computer Society: Los Alamitos, Calif., 1988). […] Raw data (i.e., no digital enhancement) were used for determining the average optical change in specified regions (average size site was 30×30 pixels or 150-250 um^2). For pseudocolor images, a linear low pass filter removed high frequency noise and linear histogram transformations were applied. Noise was defined as the standard deviation of fluctuations in sequentially acquired control images as 0.003-0.009.
An averaged control image was obtained of the particular cortical surface area of interest. Indocyanine green dye was administered into a peripheral intravenous catheter as a bolus at Time 0. Lettered labels were placed upon the brain by the surgeon overlay the tumor as identified intraoperatively by ultrasound. However, tumors of this type and grade are notoriously difficult to distinguish from normal tissue once the surgical removal of the tumor has begun. Difference images were taken approximately 15 seconds after intravenous injection of dye (indocyanine green at 1 mg/kg), and 30 seconds after dye administration. […] Therefore, it is possible to image even low grade tumors with this apparatus. Furthermore, it is possible to distinguish, intraoperatively, low grade tumor tissue from surrounding normal tissue.

[2] = test system: malignant CNS tumor (glioblastoma; astrocytoma, Grade IV); test: Optical imaging of dye perfusion in a highly malignant CNS tumor (Example 4); type: in vivo, human
Description: This example illustrates the image of a highly malignant CNS tumor (glioblastoma). A patient was imaged in a neurosurgical procedure as described in Example 1. A series of images were taken from the cortex of a patient with a malignant CNS tumor (glioblastoma; astrocytoma, Grade IV). […] A difference image was obtained at 15 seconds after intravenous injection of indocyanine green, showing the dynamics of dye perfusion in the first seconds in malignant tissue are […] to those in the first few seconds of benign tumor tissue. […] Therefore, it is possible with this device to identify malignant tumor tissue, distinguish intraoperatively between normal and malignant tumor tissue, and to distinguish between the various grades of tumor (e.g., normal vs. benign vs. malignant). Thus, it is possible to not only image the location of tumor tissue, but also to grade the tumor with more malignant tumors retaining dye for a longer period of time than a lower grade tumor.

glioma [3] = conditions: rat, in vivo
Description: This example illustrates a series of experiments using a rat glioma model and optical detection techniques through an intact skull to investigate whether the inventive method and inventive device could function in to image tumor tissue through an intact skull and through intact skin prior to or after surgery. Far red wavelengths of emr are known to penetrate through bone and skin. Imaging of tumor tissue was attempted through the intact skull of the rat. The extent of tumor identified was not as accurate as with the cortex exposed, however, the area lying beneath the skull with tumor tissue was easily identified, localized and continued to concentrate dye after several minutes.
An image was taken for a grey-scale image of the cranial surface of a rat. The sagital suture runs down the center of the image. Tumor cells had been injected into the left side some days earlier so that this animal had developed a glioma on the left hemisphere of its brain. The right hemisphere was normal. A site 1 laid over the suspect region of brain tumor, and a site 2 laid over normal tissue. A difference image was acquired at 1 second after indocyanine green dye had been intravenously injected into the animal. The region containing tumor tissue becomes immediately visible through the intact cranium. […] A concentration of dye in the center of this difference image was observed and depicted dye circulating in the sagital sinus.
The optical changes were determined by the average optical change in a site placed directly over the tumor and over the normal hemisphere. The increase in absorption is a function of the concentration of dye in the tissue at a particular time. The graph labeled “extracranial tumor” is a plot of the dynamics of the absorption changes from the tumor area. The graph labeled “extracranial: normal” is a plot of the dynamics of the absorption change from the non-tumor area.

glioma [4] = test system: glioma; set-up: species or system rat; conditions: in vivo
Description: This example illustrates a series of experiments using a rat glioma model intraoperatively to investigate whether the inventive method and inventive device could function in an operating room setting to provide real time information to the surgeon regarding resection of all tumor tissue. The rat glioma model is a standard predictive model and was used to delineate dye uptake, clearance and overall parameters of optical imaging that result in the best images. The advantages of this model are the ability to consistently get reproducible tumors for imaging studies and to be able to rescect tumor under an operating microscope and still find residual tumor with the inventive optical imaging. A disadvantage of this model is the more sarcoma-like appearance of the tumor and a lesser degree of vascularity compared to human gliomas.
Briefly, the rat glioma model uses an ethylnitrosourea-induced F-344 rat tumor line developed from a clonal population of a spinal malignant astrocytoma. […] The glioma cells were maintained in Weymouth's medium supplemented with 10% fetal calf serum. Viable cells (5×10^4) were trypsinized from a monolayer culture and implanted stereotaxically into the right cerebral hemisphere of 30 syngeneic female rats, each weighing 140-160 g. The stereotaxic coordinates for right frontal lobe implantation were 4.5 mm anterior to the frontal zero plane, 3 mm right from the midline and 6 mm deep. The rats were anesthetized for implantation. The heads were shaved and scalps opened, and a 1 mm burr hole made at the appropriate coordinates. The cells were injected through a 27 gauge needle, the needle left in place for 30 sec post injection and the hole was covered with bone wax: The scalp was sutured and the animals observed for 3-4 hrs until they returned to normal activity and feeding. The animals were used !I 0-14 days after tumor implantation. In this model, animals begin to show clinical symptoms from the tumor by 16-19 days, such as decreased activity and feeding, hemiparesis and eventually succumb between 19-27 days from mass effects due to tumor expansion.
Fourteen animals underwent complete study, including imaging before and after resection of the tumor. For study, the animals were anesthetized with 2% isoflurane, and the femoral vein canulated for administration of the dye. Anesthesia was maintained with a chloralsoe (50 mg/kg administered ip) and urethane (160 mg/kg administered ip). The animals were placed in a stereotaxic holder. Imaging studies were then carried out before or after removal of the cranium. The tumor typically occupied the anterior one half to two thirds of the right hemisphere exposure. […]

[5] = 2.5 mM in medium, 20 minutes of perfusion, stimulation at 60 Hz

SMILES: Nc1ccncc1 [4-AP]
spontaneous interictal-like bursts, average (hippocampal slice; 200 to 300 μM in bathing medium, 4 slices, 2 animals): 33 bursts/min

SMILES: [K+] [K^+]
spontaneous interictal-like bursts, average (hippocampal slice; 10 mM in bathing medium, 6 slices, 4 animals): 81 bursts/min

SMILES: CN1CCc2cc3c(cc2[C@H]1[C@@H]1OC(=O)c2c1ccc1c2OCO1)OCO3 [bicuculine]
spontaneous interictal-like bursts, average (hippocampal slice; 50 to 100 in bathing medium, 4 slices, 3 animals): 14 bursts/min

SMILES: NS(=O)(=O)c1cc(C(=O)O)c(NCc2ccco2)cc1Cl [furosemide]
field response to the test pulse (hippocampal tissue slice; 2.5 mM in medium, 20 minutes of perfusion): hyperexcitable field response (multiple population spikes)
electrical after discharge (epileptiform) activity (hippocampal tissue slice; [5]): blocks
stimulation-evoked optical changes (intrinsic optical signal) (hippocampal tissue slice; [5]): blocks
response after washout (hippocampal tissue slice; 45 minutes of perfusion with normal bathing medium): restoration of the initial response pattern

tissue staining in difference images, tumor tissue ([1]; 1 mg/kg intravenous bolus, approximately 15 and 30 seconds after dye administration): first tissue staining
time at which all tissue (both normal and abnormal) showed staining ([1]; 1 mg/kg intravenous, low grade tumor): 45 s
clearance of dye from the area of interest ([1]; five minutes after dye administration, low grade tumor): complete clearance
entry into low grade tumor tissue compared to normal brain tissue ([1]; intravenous): faster than normal brain tissue
intensity in malignant tissue compared to normal tissue ([2]; 30 seconds after intravenous injection): even more intense
retention of dye in malignant tumor tissue compared to benign tumor tissue ([2]; 1 minute and 10 minutes after dye injection): retained significantly longer
plateau phase optical change, normal brain (glioma [3]; 60 seconds): 3.1±0.7%
plateau phase optical change, tumor tissue (glioma [3]; 60 seconds): 40.5±9.6%
peak optical change, normal brain imaged through the cranium (glioma [3]; iv): 7.8±2.3%
peak optical change, tumor imaged through the cranium (glioma [3]; iv): 13.1±3.9%
duration of prolonged increase in the optical signal in the tumor (glioma [4]; female, F-344, rat): > 2 min
time after dye injection at which optical signals began to change (glioma [4]; female, F-344, rat): 2 to 3 s
dye in tumor tissue versus normal tissue (glioma [4]; rat): still collecting in tumor tissue
dye in the cerebrospinal fluid after administration (glioma [4]; rat, iv): No dye was found
SMILES: CC1(C)C(/C=C/C=C/C=C/C=C2\N(CCCCS(=O)(=O)O)c3ccc4ccccc4c3C2(C)C)=[N+](CCCCS(=O)(=O)[O-])c2ccc3ccccc3c21 [indocyanine green]
